Experimental data: paper PMC6222789, “CF3-Substituted Mollugin 2-(4-Morpholinyl)-ethyl ester as a Potential Anti-inflammatory Agent with Improved Aqueous Solubility and Metabolic Stability” (Molecules : A Journal of Synthetic Chemistry and Natural …, 2018)

Assays:
[1] = Metabolic stability, dog liver microsomes; assay type: in vitro ADME; details: 30 min, 1 μM
Description: (§1) Pooled human liver microsomes (150 donor) and dog, rat, mouse liver microsomes were obtained from BD Gentest Co. (Woburn, MA, USA). NADPH regeneration system was obtained from Promega. S-Mephenytoin, 4-hydroxymephenytoin, and 1’-hydroxymidazolam were purchased from Ultrafine Chemical Co. (Manchester, UK). All other chemicals and solvents were of the highest grade available. The metabolic stability assay was performed by incubation of human or selected animal liver microsomes (most often dog, rat and mouse), at 37 °C with a test compound at a final concentration of 1 μM, in the presence of 0.5 mg/mL microsomal protein and NADPH regeneration system, in a total volume of 100 μL of 100 mM phosphate buffer, pH 7.4. The incubation was started by the addition of NADPH regeneration system and terminated with 40 μL of ice-cold acetonitrile at 0 and 30 min. Precipitated proteins were removed by centrifugation at 10,000× g for 5 min at 4 °C. Aliquots of the supernatant were injected onto an LC-MS/MS system. Incubations terminated prior to the addition of NADPH regeneration system (time point 0 min) were used as standards, defined as 100%. Percent of the parent compound remaining was calculated by comparing peak area.

[2] = test system: IL-6-induced adhesion of U937 monocytic cells to HT-29 cells; experiment: IL-6-induced colonic epithelial cell adhesion assay; assay type: cell-based, human; details: Homo sapiens, Epithelial cell, 10 uM; U937 adhesion to HT-29 cells, IL-6-induced
Description: (§2) Synthesized mollugin derivatives were subjected to the colonic epithelial cell adhesion assay, which mimics the initial stage of colon inflammation. The inhibition of TNF-α-induced or IL-6-induced adhesion of U937 monocytic cells to HT-29 cells in 10 μM solution of synthesized molecules was measured, and the results are summarized in Table 1 and Table 2. Mesalazine (2), a commercially available medication for the treatment of IBD, and mollugin were chosen as assay positive controls.
(§3) HT-29 human colonic epithelial cells and U937 human pre-monocytic cells were grown in RPMI 1640 medium supplemented with 10% FBS, 100 IU/mL penicillin, and 100 µg/mL streptomycin in a humidified incubator under 5% CO2/95% air.
(§4) U937 monocytic cell adhesion to colonic epithelial cells was evaluated using human U937 pre-monocytic cells, which were prelabeled with 2′,7′-bis(2-carboxyethyl)-5(6)-carboxyfluorescein acetoxymethyl ester (BCECF/AM, 10 μg/mL) for 1 h at 37 °C. HT-29 cells cultured in 24-well plates were pretreated with test compound, 5-ASA, or tofacitinib for 1 h prior to incubation with TNF-α (10 ng/mL) and IL-6 (5 ng/mL) for an additional 3 h. Cells were then co-incubated with BCECF/AM-prelabeled U937 cells (1 × 10^6 cells/well) for 30 min at 37 °C. Non-adhering U937 cells were removed, and the HT-29 cells and adherent U937 cells were washed twice with PBS. Images were captured and processed with a Nikon ECLIPSE TE2000-U microscope and NIS-Elements F software (Nikon, Tokyo, Japan). For quantitative analysis, other sets of cells were lysed in 0.1% Triton X-100 in Tris (0.1 M), and the fluorescence was measured using a fluorescence-detecting microplate reader (Promega , Madison, WI, USA) at […]. Experiments were performed in triplicate and repeated at least three times independently.

[3] = Metabolic stability, rat liver microsomes; assay type: in vitro ADME; details: 30 min, 1 μM
Description: as §1

cell viability = experiment: MTT cell viability assay; assay type: cell-based; details: 10 μM concentration
CYP2C9 = biological target: T1, CYP2C9 (Homo sapiens, UniProt P11712); experiment: CYP inhibition assay, CYP2C9; assay type: in vitro ADME; details: for CYP Inhibition (% of Control) 2C9: 10 μM, CYP activity in presence of inhibitor as % of control, human liver microsomes
T1 construct: from tissue; host or cells: human liver microsomes
Description: All incubations were performed in duplicate, and the mean values were used for analysis. The assays of phenacetin O-deethylase, tolbutamide 4-hydroxylase, S-mephenytoin 4-hydroxylase, dextromethorphan O-demethylase and midazolam 1′-hydroxylase activities were determined as probe activities for CYP1A2, CYP2C9, CYP2C19, CYP2D6 and CYP3A, respectively, using cocktail incubation and tandem mass spectrometry. Briefly, incubation reaction was performed with 0.25 mg/mL human liver microsomes in a final incubation volume of 100 μL. The incubation medium contained 100 mM phosphate buffer (pH 7.4) with probe substrates. The incubation mixture containing various inhibitors (10 μM) was pre-incubated for 5 min. After pre-incubation, an NADPH regenerating system was added. After incubation at 37 °C for 15 min, the reaction was stopped by placing the incubation tubes on ice and adding 40 μL of ice-cold acetonitrile. The incubation mixtures were then centrifuged at 10,000× g for 5 min at 4 °C. Aliquots of the supernatant were injected onto an LC-MS/MS system. The CYP-mediated activities in the presence of inhibitors were expressed as percentages of the corresponding control values.

[4] = test system: TNF-α-induced adhesion of U937 monocytic cells to HT-29 cells; experiment: TNF-α-induced colonic epithelial cell adhesion assay; assay type: cell-based, human; details: Homo sapiens, Epithelial cell, 10 uM; U937 adhesion to HT-29 cells, TNF-α-induced
Description: as §2, §3, §4

hERG channel = biological target: T2, hERG channel (Homo sapiens, UniProt Q12809); experiment: hERG channel binding assay (fluorescence polarization)
T2 construct: purchased Invitrogen PV5365
Description: hERG channel binding assay was performed using Invitrogen’s hERG Fluorescence Polarization Assay kit (PV5365) with Synergy Neo plate reader (BioTek, Winooski, VT, USA). The binding assay was carried out according to the kit manufacturer’s instructions.

[5] = Determination of water solubility at 10 mM; assay type: physicochemical; details: aqueous buffer, thermodynamic from solid, sodium phosphate buffer 0.1 M, pH 7.4, room temperature
Description: Water solubility (>10 mM) was determined using the following procedure at room temperature. The test compound was added to a vial containing sodium phosphate buffer, 0.1 M, pH 7.4 (1 mL) to make a 10 mM mixture, and the mixture was equilibrated during 10 min of sonication and then visually checked immediately and after 24 h for any undissolved parts or precipitation of the sample. If no precipitation was shown after 24 h, the aqueous solution was filtered (Syringe filter; PTFE; pore size: 0.45 μm; 25 mm DI) and subjected to LC-MS to confirm the reagent.

T1 sequence (P11712 whole entry): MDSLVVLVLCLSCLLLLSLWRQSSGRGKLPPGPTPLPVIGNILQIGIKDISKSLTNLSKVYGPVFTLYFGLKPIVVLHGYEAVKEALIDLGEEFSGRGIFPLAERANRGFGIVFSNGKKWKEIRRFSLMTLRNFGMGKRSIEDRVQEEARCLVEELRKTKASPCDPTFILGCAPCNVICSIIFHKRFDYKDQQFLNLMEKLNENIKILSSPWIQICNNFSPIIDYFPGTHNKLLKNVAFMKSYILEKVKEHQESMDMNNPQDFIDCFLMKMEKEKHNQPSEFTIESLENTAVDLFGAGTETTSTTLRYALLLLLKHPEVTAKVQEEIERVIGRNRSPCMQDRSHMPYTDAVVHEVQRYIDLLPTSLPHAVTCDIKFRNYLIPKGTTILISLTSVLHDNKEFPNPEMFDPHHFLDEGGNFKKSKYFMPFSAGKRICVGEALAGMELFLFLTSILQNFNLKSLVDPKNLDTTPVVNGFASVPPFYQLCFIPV
T2 sequence (Q12809 whole entry): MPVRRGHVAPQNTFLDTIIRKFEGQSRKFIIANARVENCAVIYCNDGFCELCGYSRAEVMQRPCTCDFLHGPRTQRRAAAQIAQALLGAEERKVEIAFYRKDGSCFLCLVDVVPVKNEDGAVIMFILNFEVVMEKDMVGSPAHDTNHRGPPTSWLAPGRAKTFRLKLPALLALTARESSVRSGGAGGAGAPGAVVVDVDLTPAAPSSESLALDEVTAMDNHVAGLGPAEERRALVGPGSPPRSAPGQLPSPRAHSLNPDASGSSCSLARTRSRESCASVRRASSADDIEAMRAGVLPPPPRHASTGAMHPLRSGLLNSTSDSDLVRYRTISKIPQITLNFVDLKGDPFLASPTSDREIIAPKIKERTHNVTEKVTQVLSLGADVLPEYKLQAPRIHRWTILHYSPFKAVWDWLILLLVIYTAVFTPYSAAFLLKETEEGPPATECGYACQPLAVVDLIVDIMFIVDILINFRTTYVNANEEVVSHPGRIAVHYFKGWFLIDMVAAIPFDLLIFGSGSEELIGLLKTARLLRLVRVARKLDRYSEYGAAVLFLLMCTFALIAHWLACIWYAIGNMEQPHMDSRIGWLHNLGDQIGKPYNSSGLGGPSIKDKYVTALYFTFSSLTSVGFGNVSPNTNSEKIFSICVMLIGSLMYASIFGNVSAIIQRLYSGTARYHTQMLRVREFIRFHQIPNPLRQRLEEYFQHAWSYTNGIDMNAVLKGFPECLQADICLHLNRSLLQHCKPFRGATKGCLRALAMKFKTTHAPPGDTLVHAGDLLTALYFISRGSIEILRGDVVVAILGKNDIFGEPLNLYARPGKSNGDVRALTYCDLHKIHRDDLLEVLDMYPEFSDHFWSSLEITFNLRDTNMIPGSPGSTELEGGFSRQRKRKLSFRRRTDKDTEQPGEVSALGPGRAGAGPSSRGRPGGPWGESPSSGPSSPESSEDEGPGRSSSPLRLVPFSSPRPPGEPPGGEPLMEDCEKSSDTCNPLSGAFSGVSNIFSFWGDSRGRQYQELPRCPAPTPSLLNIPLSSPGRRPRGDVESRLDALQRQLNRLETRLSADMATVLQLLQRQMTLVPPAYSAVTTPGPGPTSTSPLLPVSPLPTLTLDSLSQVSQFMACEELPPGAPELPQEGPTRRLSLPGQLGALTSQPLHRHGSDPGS

Metabolic Stability (% Remain, 30 min) Dog [1] [% Remain]	Metabolic Stability (% Remain, 30 min) Rat [3] [% Remain]	CYP Inhibition (% of Control) 2C9 (CYP2C9)	solubility at 24 h [5] [mM]	inhibition at 15 min, 10 μM (CYP2C9; human, liver microsomes, pH 7.4, probe tolbutamide (4-hydroxylation), at 10 μM drug concentration, read-out: % inhibition of CYP 2C9) [%]	SMILES	inhibition at 10 µM [2] [%]	effect on cell viability (MTT) (cell viability)	inhibition at 10 µM [4] [%]	IC50 (hERG channel) [µM]
45	20	99 % of Control			CC1(C)C=Cc2c(C(=O)OCCN3CCOCC3)c(O)c3ccccc3c2O1 [6d, 2-Morpholinoethyl 6-hydroxy-2,2-dimethyl-2H-benzo[h]chromene-5-carboxylate]	26.5 ± 5	neither 6d nor 15c affects the cell viability	46.3 ± 6.2	> 10
86	52	97 % of Control	> 10	< 50	CC1(C)C=Cc2c(C(=O)OCCN3CCOCC3)c(O)c3cc(C(F)(F)F)ccc3c2O1 [15c, 2-Morpholinoethyl 6-hydroxy-2,2-dimethyl-8-(trifluoromethyl)-2H-benzo[h]chromene-5-carboxylate]	50.3 ± 5.7	neither 6d nor 15c affects the cell viability	46 ± 7.6	
